Test results reported in patent US12612411B1, “Imidazopyrazine derivatives, process for preparation thereof, and their uses as luciferins” (INSTITUT PASTEUR, priority 2017, dated 2026).

Molecular target: T1, nanoKAZ luciferase (Oplophorus gracilirostris, UniProt Q9GV45, A31E/A60N/A81I/F95D/I117V/K70R/L54V/L99Q/M102K/N193R/P142E/Q151K/Q38R/Q45L/V71I/Y165I)
T1 construct: luciferase catalytic domain (nanoKAZ, 19 kDa) from the Oplophorus-derived luciferase; host or cells: cell-free: 1-Step Human Coupled IVT Kit, pT7CFE1-based vector
Experiment: In vitro bioluminescence screening of imidazo[1,2-a]pyrazin-3(7H)-ones with nanoKAZ expressed in vitro (96-well luminometer, 2 h kinetic)
Assay type: biochemical
Details: furimazine = 1
Procedure: General protocol for the generation of solutions of imidazo[1,2-a]pyrazin-3(7H)-one Q by acidic hydrolysis of imidazo[1,2-a]pyrazin-3-yl acetate derivatives P. The considered acetate P (1 mg) was dissolved in DMSO (0.2 mL) and then diluted by adding a solution of acidic ethanol (0.3 ml) made from the addition of 37% hydrochloric acid (100 μl) on 100% ethanol (12 mL). This 0.5 mL solution was incubated at 50° C. for 2 hours to give a stock solution which was then stored at −80° C. […] Nota: these conditions are only adapted to the hydrolysis of the protecting group (as defined above) of the oxygen on position 2 of the imidazo[1,2-a]pyrazine ring system and not to the hydrolysis of any additional acetyl groups eventually present elsewhere on the substrate of this reaction.
The representative bioluminescence curves shown in the FIG. 2 provided an assessment for furimazine (Q-1), 8-benzyl-2-(furan-2-ylmethyl)-6-(4-hydroxyphenyl)imidazo[1,2-a]pyrazin-3 (7/1)-one (Q-80), 8-(2-fluorobenzyl)-2-(furan-2-ylmethyl)-6-phenylimidazo[1,2-a]pyrazin-3(7H)-one (Q-84), and 8-(2-fluorobenzyl)-2-((5-methylfuran-2-yl)methyl)-6-phenylimidazo[1,2-a]pyrazin-3(7H)-one (Q-85) was obtained using a luciferase expressed in vitro as described in the following. The nanoKAZ DNA template was cloned into Thermo Scientific pT7CFE1-based vector and nanoKAZ was expressed using ThermoFisher Scientific 1-Step Human Coupled IVT Kit—DNA (ref. 88881) according to the manufacturer instructions. The resulting reaction mix was diluted 400 times in buffer (DPBS (Gibco)+0.1% (v/v) Tween 20) and conserved at −80° C. The screening of the imidazo[1,2-a]pyrazin-3(7H)-ones was performed in 96 well plates using 50 μL/well of a 1/20 dilution in DPBS (Gibco)+0.1% (v/v) Tween 20 of the nanoKAZ solution.
To illustrate the bioluminescence properties improvement achieved for many of the imidazo[1,2-a]pyrazin-3(7H)-ones described here, four values are provided in Table 1: maximum intensity (V1), signal half-life (V2), area under the curve for ten minutes (V3), and area under the curve for two hours (V4), normalized using furimazine (Q-1) as a reference.
The bioluminescence properties of the tested compounds are considered to be improved when at least one of the values V1-V4 is above 1, and when none of the V1-V4 values is 0.05 or below.
By following the hydrolysis protocol described above, the following imidazo[1,2-a]pyrazin-3(7H)-ones luciferins Q were made in situ from the corresponding O-protected imidazo[1,2-a]pyrazines P and evaluated for their bioluminescence properties (maximum intensity (V1), signal half-life (V2), area under the curve for […], normalized using furimazine (Q-1) as a reference): […]

[1] = second table, luciferins made in situ from O-protected P

T1 sequence (Q9GV45 other isoform, or with tags, fused parts or gaps with the stated changes): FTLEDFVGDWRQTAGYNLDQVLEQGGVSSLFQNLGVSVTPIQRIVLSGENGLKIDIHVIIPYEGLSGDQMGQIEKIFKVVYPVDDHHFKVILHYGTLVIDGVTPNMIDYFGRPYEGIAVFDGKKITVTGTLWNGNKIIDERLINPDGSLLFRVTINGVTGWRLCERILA

O=c1c(Cc2ccco2)nc2c(Cc3ccccc3)[nH]c(-c3ccc(O)cc3)cn1-2 [Q-80, 8-benzyl-2-(furan-2-ylmethyl)-6-(4-hydroxyphenyl)imidazo[1,2-a]pyrazin-3(7H)-one, reference compound] was tested, and the “V1: maximum intensity, normalized using furimazine (Q-1) as a reference” value (from here on “V1: maximum intensity, normalized”) (Table 1) was 3.06, the “V3: area under the curve for ten minutes, normalized using furimazine (Q-1) as a reference” value (Table 1) was 0.79 and the “V4: area under the curve for two hours, normalized using furimazine (Q-1) as a reference” value (Table 1) was 0.14.

For O=c1c(Cc2ccco2)nc2c(Cc3cccc(F)c3)[nH]c(-c3ccccc3)cn1-2 [Q-81, 8-(3-fluorobenzyl)-2-(furan-2-ylmethyl)-6-phenylimidazo[1,2-a]pyrazin-3(7H)-one], the “V1: maximum intensity, normalized” value (Table 1) was 0.82, the “V3: area under the curve for ten minutes, normalized using furimazine (Q-1) as a reference” value (Table 1) was 0.92 and the “V4: area under the curve for two hours, normalized using furimazine (Q-1) as a reference” value (Table 1) was 1.31.

In the case of Cc1cccc(Cc2nc3c(Cc4ccccc4F)[nH]c(-c4ccccc4)cn-3c2=O)c1 [Q-82, 8-(2-fluorobenzyl)-2-(3-methylbenzyl)-6-phenylimidazo[1,2-a]pyrazin-3(7H)-one], the “V1: maximum intensity, normalized” value (Table 1) is reported as 1.36, the “V3: area under the curve for ten minutes, normalized using furimazine (Q-1) as a reference” value (Table 1) is reported as 1.38 and the “V4: area under the curve for two hours, normalized using furimazine (Q-1) as a reference” value (Table 1) is reported as 0.84.

With COc1cccc(Cc2nc3c(Cc4ccccc4F)[nH]c(-c4ccccc4)cn-3c2=O)c1 [Q-83, 8-(2-fluorobenzyl)-2-(3-methoxybenzyl)-6-phenylimidazo[1,2-a]pyrazin-3(7H)-one] the “V1: maximum intensity, normalized” value (Table 1) was 1.46, the “V3: area under the curve for ten minutes, normalized using furimazine (Q-1) as a reference” value (Table 1) was 1.49 and the “V4: area under the curve for two hours, normalized using furimazine (Q-1) as a reference” value (Table 1) was 1.12.

In the case of O=c1c(Cc2ccco2)nc2c(Cc3ccccc3F)[nH]c(-c3ccccc3)cn1-2 [Q-84, 8-(2-fluorobenzyl)-2-(furan-2-ylmethyl)-6-phenylimidazo[1,2-a]pyrazin-3(7H)-one], the “V1: maximum intensity, normalized” value (Table 1) is reported as 0.84, the “V3: area under the curve for ten minutes, normalized using furimazine (Q-1) as a reference” value (Table 1) is reported as 0.91 and the “V4: area under the curve for two hours, normalized using furimazine (Q-1) as a reference” value (Table 1) is reported as 1.18.

With Cc1ccc(Cc2nc3c(Cc4ccccc4F)[nH]c(-c4ccccc4)cn-3c2=O)o1 [Q-85, 8-(2-fluorobenzyl)-2-((5-methylfuran-2-yl)methyl)-6-phenylimidazo[1,2-a]pyrazin-3(7H)-one] the “V1: maximum intensity, normalized” value (Table 1) was 2.3, the “V3: area under the curve for ten minutes, normalized using furimazine (Q-1) as a reference” value (Table 1) was 2.4 and the “V4: area under the curve for two hours, normalized using furimazine (Q-1) as a reference” value (Table 1) was 1.81.

In the case of CCc1ccc(Cc2nc3c(Cc4ccccc4F)[nH]c(-c4ccccc4)cn-3c2=O)o1 [Q-96, 2-((5-ethylfuran-2-yl)methyl)-8-(2-fluorobenzyl)-6-phenylimidazo[1,2-a]pyrazin-3(7H)-one], the “V1: maximum intensity, normalized” value (Table 1) is reported as 2.51, the “V3: area under the curve for ten minutes, normalized using furimazine (Q-1) as a reference” value (Table 1) is reported as 2.68 and the “V4: area under the curve for two hours, normalized using furimazine (Q-1) as a reference” value (Table 1) is reported as 1.98.

In the case of Cc1ccc(Cc2nc3c(Cc4cccc(F)c4)[nH]c(-c4ccccc4)cn-3c2=O)o1 [Q-97, 8-(3-fluorobenzyl)-2-((5-methylfuran-2-yl)methyl)-6-phenylimidazo[1,2-a]pyrazin-3(7H)-one], the “V1: maximum intensity, normalized” value (Table 1) is reported as 2.04, the “V3: area under the curve for ten minutes, normalized using furimazine (Q-1) as a reference” value (Table 1) is reported as 2.20 and the “V4: area under the curve for two hours, normalized using furimazine (Q-1) as a reference” value (Table 1) is reported as 2.04.

With Cc1ccc(Cc2nc3c(Cc4ccccc4Cl)[nH]c(-c4ccccc4)cn-3c2=O)o1 [Q-98, 8-(2-chlorobenzyl)-2-((5-methylfuran-2-yl)methyl)-6-phenylimidazo[1,2-a]pyrazin-3(7H)-one] the “V1: maximum intensity, normalized” value (Table 1) was 1.18, the “V3: area under the curve for ten minutes, normalized using furimazine (Q-1) as a reference” value (Table 1) was 1.28 and the “V4: area under the curve for two hours, normalized using furimazine (Q-1) as a reference” value (Table 1) was 1.20.

CCc1ccc(Cc2nc3c(Cc4cccc(F)c4)[nH]c(-c4ccccc4)cn-3c2=O)o1 [Q-99, 2-((5-ethylfuran-2-yl)methyl)-8-(3-fluorobenzyl)-6-phenylimidazo[1,2-a]pyrazin-3(7H)-one] was tested, and the “V1: maximum intensity, normalized” value (Table 1) was 1.99, the “V3: area under the curve for ten minutes, normalized using furimazine (Q-1) as a reference” value (Table 1) was 2.13 and the “V4: area under the curve for two hours, normalized using furimazine (Q-1) as a reference” value (Table 1) was 2.08.

For Cc1cccc(Cc2nc3c(Cc4cccc(F)c4)[nH]c(-c4ccccc4)cn-3c2=O)c1 [Q-100, 8-(3-fluorobenzyl)-2-(3-methylbenzyl)-6-phenylimidazo[1,2-a]pyrazin-3(7H)-one], the “V1: maximum intensity, normalized” value (Table 1) was 1.25, the “V3: area under the curve for ten minutes, normalized using furimazine (Q-1) as a reference” value (Table 1) was 1.33 and the “V4: area under the curve for two hours, normalized using furimazine (Q-1) as a reference” value (Table 1) was 1.04.

With Cc1ccc(Cc2nc3c(Cc4cccc(F)c4)[nH]c(-c4ccccc4F)cn-3c2=O)o1 [Q-105, 8-(3-fluorobenzyl)-6-(2-fluorophenyl)-2-((5-methylfuran-2-yl)methyl)imidazo[1,2-a]pyrazin-3(7H)-one] the “V3: area under the curve for 2 hours, normalized using furimazine (Q-1) as a reference” value (second table) was 2.01, the “V4: area under the curve for ten minutes, normalized using furimazine (Q-1) as a reference” value (second table) was 1.72 and the “V1: maximum intensity, normalized” value [1] was 2.04.

O=c1c(Cc2ccco2)nc2c(Cc3cccc(F)c3F)[nH]c(-c3ccccc3)cn1-2 [Q-107, 8-(2,3-difluorobenzyl)-2-(furan-2-ylmethyl)-6-phenylimidazo[1,2-a]pyrazin-3(7H)-one] was tested, and the “V3: area under the curve for 2 hours, normalized using furimazine (Q-1) as a reference” value (second table) was 1.04, the “V4: area under the curve for ten minutes, normalized using furimazine (Q-1) as a reference” value (second table) was 1.27 and the “V1: maximum intensity, normalized” value [1] was 1.03.

With Cc1ccc(Cc2nc3c(Cc4cccc(F)c4F)[nH]c(-c4ccccc4)cn-3c2=O)o1 [Q-108, 8-(2,3-difluorobenzyl)-2-((5-methylfuran-2-yl)methyl)-6-phenylimidazo[1,2-a]pyrazin-3(7H)-one] the “V3: area under the curve for 2 hours, normalized using furimazine (Q-1) as a reference” value (second table) was 3.09, the “V4: area under the curve for ten minutes, normalized using furimazine (Q-1) as a reference” value (second table) was 2.1 and the “V1: maximum intensity, normalized” value [1] was 3.15.

O=c1c(Cc2ccccc2)nc2c(Cc3cccc(F)c3F)[nH]c(-c3ccccc3)cn1-2 [Q-117, 2-benzyl-8-(2,3-difluorobenzyl)-6-phenylimidazo[1,2-a]pyrazin-3(7H)-one] was tested, and the “V3: area under the curve for 2 hours, normalized using furimazine (Q-1) as a reference” value (second table) was 1.94, the “V4: area under the curve for ten minutes, normalized using furimazine (Q-1) as a reference” value (second table) was 0.7 and the “V1: maximum intensity, normalized” value [1] was 2.31.

With Cc1ccc(Cc2nc3c(Cc4c(F)cccc4F)[nH]c(-c4ccccc4)cn-3c2=O)o1 [Q-121, 8-(2,6-difluorobenzyl)-2-((5-methylfuran-2-yl)methyl)-6-phenylimidazo[1,2-a]pyrazin-3(7H)-one] the “V3: area under the curve for 2 hours, normalized using furimazine (Q-1) as a reference” value (second table) was 1.43, the “V4: area under the curve for ten minutes, normalized using furimazine (Q-1) as a reference” value (second table) was 1.37 and the “V1: maximum intensity, normalized” value [1] was 1.41.

Cc1cc(Cc2nc3c(Cc4cccc(F)c4F)[nH]c(-c4ccccc4)cn-3c2=O)oc1C [Q-124, 8-(2,3-difluorobenzyl)-2-((4,5-dimethylfuran-2-yl)methyl)-6-phenylimidazo[1,2-a]pyrazin-3(7H)-one] was tested, and the “V3: area under the curve for 2 hours, normalized using furimazine (Q-1) as a reference” value (second table) was 2.29, the “V4: area under the curve for ten minutes, normalized using furimazine (Q-1) as a reference” value (second table) was 1.03 and the “V1: maximum intensity, normalized” value [1] was 2.43.

In the case of CCc1ccc(Cc2nc3c(Cc4cccc(F)c4F)[nH]c(-c4ccccc4)cn-3c2=O)o1 [Q-127, 8-(2,3-difluorobenzyl)-2-((5-ethylfuran-2-yl)methyl)-6-phenylimidazo[1,2-a]pyrazin-3(7H)-one], the “V3: area under the curve for 2 hours, normalized using furimazine (Q-1) as a reference” value (second table) is reported as 2.69, the “V4: area under the curve for ten minutes, normalized using furimazine (Q-1) as a reference” value (second table) is reported as 1.55 and the “V1: maximum intensity, normalized” value [1] is reported as 2.81.

In the case of CCc1ccc(Cc2nc3c(Cc4c(F)cccc4F)[nH]c(-c4ccccc4)cn-3c2=O)o1 [Q-129, 8-(2,6-difluorobenzyl)-2-((5-ethylfuran-2-yl)methyl)-6-phenylimidazo[1,2-a]pyrazin-3(7H)-one], the “V3: area under the curve for 2 hours, normalized using furimazine (Q-1) as a reference” value (second table) is reported as 1.37, the “V4: area under the curve for ten minutes, normalized using furimazine (Q-1) as a reference” value (second table) is reported as 1.32 and the “V1: maximum intensity, normalized” value [1] is reported as 1.41.
